According to PubChem BioAssay (NCI):
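1) Cells in 96-well plates. 2) Compound, 48 h, 5 concentrations. 3) Linear interpolation between surrounding doses. 4) Unreached endpoint = highest concentration. TGI marks complete inhibition of growth.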

Columns and labels:
Assay in all cases: NCI tumour cell line growth inhibition, 48 h
[1] = test system: NCI-H522 lung
[2] = test system: OVCAR-3 ovarian
[3] = test system: OVCAR-4 ovarian
[4] = test system: KM12 colon
[5] = test system: SNB-19 CNS
[6] = test system: IGROV1 ovarian
[7] = test system: SK-MEL-28 melanoma
[8] = test system: K-562 leukemia
[9] = test system: SK-MEL-2 melanoma
[10] = test system: LOX IMVI melanoma
[11] = test system: MDA-MB-435
[12] = test system: NCI-H23 lung
[13] = test system: UACC-62 melanoma
[14] = test system: SK-OV-3 ovarian
[15] = test system: HOP-92 NSCLC
[16] = test system: U251 CNS
[17] = test system: HS 578T breast
[18] = test system: RPMI-8226 leukemia
[19] = test system: BT-549 breast
[20] = test system: MOLT-4 leukemia
[21] = test system: TK-10 renal
[22] = test system: COLO 205 colon
[23] = test system: SN12C renal
[24] = test system: SF-539 CNS
[25] = test system: HCT-15 colon
[26] = test system: OVCAR-5 ovarian
[27] = test system: SW-620 colon
[28] = test system: CCRF-CEM leukemia
[29] = test system: UACC-257 melanoma
[30] = test system: MDA-N
[31] = test system: NCI/ADR-RES ovarian
[32] = test system: 786-0 renal
[33] = test system: OVCAR-8 ovarian
[34] = test system: HCT-116 colon
[35] = test system: HT29 colon
[36] = test system: UO-31 renal
[37] = test system: NCI-H460 lung
[38] = test system: SNB-75 CNS
[39] = test system: T-47D breast
[40] = test system: CAKI-1 renal
[41] = test system: DU-145 prostate
[42] = test system: MDA-MB-231 breast
[43] = test system: ACHN renal
[44] = test system: SF-268 CNS
[45] = test system: MCF7 breast
[46] = test system: HCC-2998 colon
[47] = test system: NCI-H226 lung
[48] = test system: RXF 393 renal
[49] = test system: EKVX NSCLC
[50] = test system: A549 NSCLC
[51] = test system: SF-295 CNS
[52] = test system: HOP-62 NSCLC
[53] = test system: PC-3 prostate
[54] = test system: SK-MEL-5 melanoma
[55] = test system: M14 melanoma
[56] = test system: SR leukemia
[57] = test system: A498 renal
[58] = test system: MALME-3M melanoma
[59] = test system: HL-60(TB) leukemia

## C=C(CO)[C@H]1CC/C(C)=C/CC/C(C)=C/C/C=C(\C)[C@H](O)C1
[1]
  TGI: 32.1 µM
[2]
  TGI: 93.6 µM
[3]
  TGI: > 100 µM
[4]
  TGI: 29.5 µM
[5]
  TGI: > 100 µM
[6]
  TGI: 36.1 µM
[7]
  TGI: 31.2 µM
[8]
  TGI: > 100 µM
[9]
  TGI: 51.5 µM
[10]
  TGI: 73.8 µM
[11]
  TGI: 35.8 µM
[12]
  TGI: 86.9 µM
[13]
  TGI: 58.4 µM
[14]
  TGI: > 100 µM
[15]
  TGI: 39.5 µM
[16]
  TGI: 36 µM
[17]
  TGI: 74.1 µM
[18]
  TGI: 51.6 µM
[19]
  TGI: 44.2 µM
[20]
  TGI: 44.2 µM
[21]
  TGI: 47.7 µM
[22]
  TGI: 59.9 µM
[23]
  TGI: 81.7 µM
[24]
  TGI: 40.8 µM
[25]
  TGI: > 100 µM
[26]
  TGI: > 100 µM
[27]
  TGI: 40.1 µM
[28]
  TGI: > 100 µM
[29]
  TGI: 39.7 µM
[30]
  TGI: > 100 µM
[31]
  TGI: 90.3 µM
[32]
  TGI: 57.5 µM
[33]
  TGI: 35.3 µM
[34]
  TGI: > 100 µM
[35]
  TGI: 35 µM
[36]
  TGI: 93 µM
[37]
  TGI: 62.7 µM
[38]
  TGI: 78.9 µM
[39]
  TGI: > 100 µM
[40]
  TGI: 75.1 µM
[41]
  TGI: > 100 µM
[42]
  TGI: 56.6 µM
[43]
  TGI: 69.7 µM
[44]
  TGI: 51.4 µM
[45]
  TGI: 60.8 µM
[46]
  TGI: 32.2 µM
[47]
  TGI: 90.9 µM
[48]
  TGI: 42.1 µM
[49]
  TGI: > 100 µM
[50]
  TGI: > 100 µM
[51]
  TGI: > 100 µM
[52]
  TGI: > 100 µM
[53]
  TGI: > 100 µM
[54]
  TGI: 54.1 µM

## CN(C)Cc1cc(C(=O)/C=C/c2c(Cl)cccc2Cl)cc(CN(C)C)c1O
[1]
  TGI: 10.7 µM
[2]
  TGI: 23.6 µM
[3]
  TGI: 24.8 µM
[4]
  TGI: 7.2 µM
[5]
  TGI: 31 µM
[6]
  TGI: 21.8 µM
[7]
  TGI: 20.9 µM
[8]
  TGI: 13.4 µM
[10]
  TGI: 4.45 µM
[11]
  TGI: 21.9 µM
[12]
  TGI: 34.2 µM
[15]
  TGI: 9.06 µM
[16]
  TGI: 23.4 µM
[17]
  TGI: 38.7 µM
[18]
  TGI: 39 µM
[20]
  TGI: 30.3 µM
[21]
  TGI: 27.8 µM
[22]
  TGI: 7.66 µM
[55]
  TGI: 18.9 µM
[23]
  TGI: 21 µM
[24]
  TGI: 34.4 µM
[25]
  TGI: 24.2 µM
[26]
  TGI: 32.2 µM
[27]
  TGI: 13.9 µM
[28]
  TGI: 59 µM
[29]
  TGI: 16.9 µM
[30]
  TGI: 12.7 µM
[31]
  TGI: 41 µM
[56]
  TGI: 22.6 µM
[32]
  TGI: 16.2 µM
[33]
  TGI: 15.2 µM
[34]
  TGI: 19.6 µM
[35]
  TGI: 11.6 µM
[57]
  TGI: 22.5 µM
[36]
  TGI: 8.85 µM
[37]
  TGI: 13 µM
[38]
  TGI: 15.7 µM
[39]
  TGI: 42 µM
[40]
  TGI: 6.74 µM
[41]
  TGI: 20.8 µM
[58]
  TGI: 15.7 µM
[42]
  TGI: 15.1 µM
[43]
  TGI: 12.4 µM
[44]
  TGI: 32.4 µM
[59]
  TGI: 11.7 µM
[45]
  TGI: 14.7 µM
[46]
  TGI: 34.7 µM
[47]
  TGI: 32.4 µM
[48]
  TGI: 18.6 µM
[49]
  TGI: 23.2 µM
[50]
  TGI: 29.5 µM
[51]
  TGI: 23.1 µM
[52]
  TGI: 20.2 µM
[53]
  TGI: 19 µM
[54]
  TGI: 13.9 µM

## C=CCNC(NCC=C)=C(C(Cl)=C(Cl)Cl)[N+](=O)[O-]
[2]
  TGI: > 100 µM
[3]
  TGI: > 100 µM
[4]
  TGI: > 100 µM
[5]
  TGI: > 100 µM
[7]
  TGI: > 100 µM
[8]
  TGI: 54.3 µM
[9]
  TGI: > 100 µM
[11]
  TGI: > 100 µM
[12]
  TGI: > 100 µM
[13]
  TGI: > 100 µM
[14]
  TGI: > 100 µM
[16]
  TGI: > 100 µM
[17]
  TGI: 54 µM
[18]
  TGI: > 100 µM
[19]
  TGI: 83.4 µM
[20]
  TGI: 87.9 µM
[22]
  TGI: 37.2 µM
[55]
  TGI: > 100 µM
[23]
  TGI: > 100 µM
[24]
  TGI: 71.7 µM
[25]
  TGI: 32.9 µM
[26]
  TGI: > 100 µM
[27]
  TGI: 55.7 µM
[28]
  TGI: > 100 µM
[29]
  TGI: > 100 µM
[30]
  TGI: > 100 µM
[31]
  TGI: > 100 µM
[32]
  TGI: > 100 µM
[33]
  TGI: 31.2 µM
[34]
  TGI: > 100 µM
[35]
  TGI: > 100 µM
[57]
  TGI: > 100 µM
[36]
  TGI: > 100 µM
[37]
  TGI: > 100 µM
[38]
  TGI: > 100 µM
[39]
  TGI: > 100 µM
[40]
  TGI: > 100 µM
[41]
  TGI: > 100 µM
[58]
  TGI: 30.7 µM
[42]
  TGI: > 100 µM
[43]
  TGI: > 100 µM
[44]
  TGI: > 100 µM
[45]
  TGI: > 100 µM
[46]
  TGI: > 100 µM
[47]
  TGI: > 100 µM
[49]
  TGI: > 100 µM
[50]
  TGI: > 100 µM
[51]
  TGI: > 100 µM
[52]
  TGI: > 100 µM
[53]
  TGI: > 100 µM

## C=CCN1C(=O)N/C(=C\c2ccc(Cl)cc2)C1=O
[1]
  TGI: > 100 µM
[2]
  TGI: > 100 µM
[3]
  TGI: > 100 µM
[4]
  TGI: > 100 µM
[5]
  TGI: > 100 µM
[6]
  TGI: > 100 µM
[7]
  TGI: > 100 µM
[8]
  TGI: > 100 µM
[10]
  TGI: > 100 µM
[11]
  TGI: > 100 µM
[12]
  TGI: > 100 µM
[13]
  TGI: > 100 µM
[14]
  TGI: > 100 µM
[15]
  TGI: > 100 µM
[16]
  TGI: > 100 µM
[17]
  TGI: > 100 µM
[18]
  TGI: > 100 µM
[19]
  TGI: > 100 µM
[20]
  TGI: > 100 µM
[21]
  TGI: > 100 µM
[22]
  TGI: > 100 µM
[55]
  TGI: > 100 µM
[23]
  TGI: > 100 µM
[24]
  TGI: > 100 µM
[25]
  TGI: > 100 µM
[26]
  TGI: > 100 µM
[27]
  TGI: > 100 µM
[28]
  TGI: > 100 µM
[29]
  TGI: > 100 µM
[30]
  TGI: > 100 µM
[31]
  TGI: > 100 µM
[32]
  TGI: > 100 µM
[33]
  TGI: > 100 µM
[34]
  TGI: > 100 µM
[35]
  TGI: > 100 µM
[57]
  TGI: > 100 µM
[37]
  TGI: > 100 µM
[38]
  TGI: > 100 µM
[39]
  TGI: > 100 µM
[40]
  TGI: > 100 µM
[41]
  TGI: > 100 µM
[58]
  TGI: > 100 µM
[42]
  TGI: > 100 µM
[43]
  TGI: > 100 µM
[44]
  TGI: > 100 µM
[59]
  TGI: > 100 µM
[45]
  TGI: > 100 µM
[47]
  TGI: > 100 µM
[48]
  TGI: > 100 µM
[49]
  TGI: > 100 µM
[50]
  TGI: > 100 µM
[51]
  TGI: > 100 µM
[52]
  TGI: > 100 µM
[54]
  TGI: > 100 µM
